Measurements as given in US4150135A, “Substituted 4a-phenyl-N-phenylalkyl-cis-decahydroisoquinolines” (priority 1977, dated 1979).
Structures can show the parent of a compound that is named as a salt. Where two headings read alike, the source gives them in different places.

Columns and labels:
[1] = system: mice (phenylquinone-induced stretching or writhing syndrome); test: standard phenylquinone writhing test (PQW), oral analgesia in mice; assay type: in vivo, female white mice; details: for ED50: Mus musculus, po
Method: A standard procedure for detecting and comparing the analgesic activity of compounds in this series for which there is good correlation with human efficacy is the standard phenylquinone writhing test (PQW) modified from Siegmund, et al., Proc. Soc. Exp. Biol. Med. 95, 729 (1957). A test compound suspended in 1% methylcellulose was given orally to fasted (17-21 hours) female white mice, 5-20 animals per dose in a double blind test. Aqueous (0.01% phenyl-p-benzoquinone) phenylquinone was injected intraperitoneally at 23 or 30 minutes later using 0.20 ml per mouse. […] The effective analgesic dose for 50% of the mice (ED 50) was calculated by the moving average method of Weil, Biometrics 8, 249 (1952).

[2] = J. Am. Chem. Soc. 72, 712 (1950); cited from earlier work
[3] = mice, phenylquinone i.p., effective analgesic dose for 50% of the mice (Table II), read-out: PQW ED50
[4] = mouse (Table III, additional compounds), read-out: Mouse ED50 Analgesia (PQW)-Oral

Compound	ED50 [1, 3] [mg/kg]	other results
COc1cccc(C23CCCCC2CN(CC2CC2)CC3)c1 (stereo not drawn)	14	–
Oc1cccc(C23CCCCC2CN(CC2CC2)CC3)c1 (stereo not drawn)	20	–
COc1cccc(C23CCCCC2CN(CC2CCC2)CC3)c1 (stereo not drawn)	18.5	–
Oc1cccc(C23CCCCC2CN(CC2CCC2)CC3)c1 (stereo not drawn)	20	–
COc1cccc(C23CCCCC2CN(CCc2ccccc2)CC3)c1 (stereo not drawn)	14.5	–
Oc1cccc(C23CCCCC2CN(CCc2ccccc2)CC3)c1 (stereo not drawn)	21	–
COc1cccc(C23CCCCC2CN(CCc2ccc(F)cc2)CC3)c1 (stereo not drawn)	33	–
Oc1cccc(C23CCCCC2CN(CCc2ccc(Cl)cc2)CC3)c1 (stereo not drawn)	28	–
COc1cccc(C23CCCCC2CN(CCc2ccc(Cl)cc2)CC3)c1 (stereo not drawn)	16	–
Cc1ccc(CCN2CCC3(c4cccc(O)c4)CCCCC3C2)cc1 (stereo not drawn)	9.7	–
COc1cccc(C23CCCCC2CN(CCc2ccc(C)cc2)CC3)c1 (stereo not drawn)	11	–
COc1cccc(C23CCCCC2CN(CCc2ccc(N(C)C)cc2)CC3)c1 (stereo not drawn)	15.1	–
COc1cccc(C23CCCCC2CN(CCc2ccco2)CC3)c1 (stereo not drawn)	25	–
Oc1cccc(C23CCCCC2CN(CCc2cccs2)CC3)c1 (stereo not drawn)	24	–
COc1cccc(C23CCCCC2CN(CCc2cccs2)CC3)c1 (stereo not drawn)	27	–
CC(=O)Oc1cccc(C23CCCCC2CN(CCc2cccs2)CC3)c1 (stereo not drawn)	27	–

Compound	ED50 [1, 3] [mg/kg]	other results
CC(C)=CCN1CC[C@]2(c3cccc(O)c3)CCCC[C@@H]2C1 (relative stereo) [CH2CHC(CH3)2 m-OH, N-(3,3-Dimethylallyl)-4a-(m-hydroxyphenyl)-cis-decahydroisoquinoline]	40	–
C=CCN1CC[C@]2(c3cccc(O)c3)CCCC[C@@H]2C1 (relative stereo) [CH2CHCH2 m-OH, N-Allyl-4a-(m-hydroxyphenyl)-cis-decahydroisoquinoline]	43	–
CN1CC[C@]2(c3ccc(F)cc3)CCCC[C@@H]2C1 (relative stereo) [CH3 p-F, N-methyl-4a-(p-fluorophenyl)-cis-decahydroisoquinoline]	26	–
CN1CC[C@]2(c3ccccc3)CCCC[C@@H]2C1 (relative stereo) [N-Methyl-4a-phenyl-cis-decahydroisoquinoline]	–	analgesic activity [2]: low analgesic activity
CC(=O)Oc1ccccc1C(=O)O [Aspirin, reference compound]	109	–
CCCCCN1CCC2(c3cccc(OC)c3)CCCCC2C1 (stereo not drawn) [C5 H11 m-OCH3]	20	–
CN1CCC2(c3cccc(O)c3)CCCCC2C1 (stereo not drawn) [CH3 m-OH]	2.9	–
COc1ccc2c3c1O[C@H]1[C@@H](O)C=C[C@H]4[C@@H](C2)N(C)CC[C@@]341 [Codeine H3 PO4, reference compound]	8	–
COc1cccc(C23CCN(CCc4ccc(C)cc4)CC2CCC(C)C3)c1 (stereo not drawn) [Example 20-G, N-(p-Tolylethyl)-4a-m-methoxyphenyl-6β-methyl-cis-decahydroisoquinoline]	–	ED50 [1, 4]: 28 mg/kg; Mouse ED50 Analgesia (PQW)-Oral ([1]; oral, mouse (Table III, additional compounds)): 22 mg/kg
CC1CCC2CN(CC3CCC3)CCC2(c2cccc(O)c2)C1 (stereo not drawn) [Example 22-C, N-Cyclobutylmethyl-4a-m-hydroxyphenyl-6β-methyl-cis-decahydroisoquinoline]	–	ED50 [1, 4]: 54 mg/kg
COc1cccc(C23CCN(C)CC2CCC(C)C3)c1 (stereo not drawn) [Example 23, N-Methyl-4a-m-methoxyphenyl-6β-methyl-cis-decahydroisoquinoline]	–	ED50 [1, 4]: 3.5 mg/kg
CC1CCC2CN(CCc3ccccc3)CCC2(c2cccc(O)c2)C1 (stereo not drawn) [Example 27-C, N-Phenethyl-4a-m-hydroxyphenyl-6β-methyl-cis-decahydroisoquinoline]	–	ED50 [1, 4]: 10.8 mg/kg
COc1cccc(C23CCN(Cc4ccco4)CC2CCC(C)C3)c1 (stereo not drawn) [Example 28, N-(2-Furylmethyl)-4a-m-methoxyphenyl-6β-methyl-cis-decahydroisoquinoline]	–	ED50 [1, 4]: 61 mg/kg
CN1CC[C@]23c4c5ccc(O)c4O[C@H]2[C@@H](O)C=C[C@H]3[C@H]1C5 [Morphine H2 SO4, reference compound]	–	ED50 ([1]; read-out: PQW ED50): 1.6 mg/kg
Oc1ccc2c3c1O[C@H]1[C@@H](O)CC[C@@]4(O)[C@@H](C2)N(CC2CCC2)CC[C@]314 [Nalbuphine HCl, reference compound]	8.4	–
CC(C)=CCN1CCC2(C)c3cc(O)ccc3CC1C2C.Cl (stereo not drawn) [Pentazocine HCl, reference compound]	57	–
